# From patent US20210338650A1, “CXCL10 Inhibitors” (LAPKO INC, dba AFECTA PHARMACEUTICALS, priority 2020, published 2021)
# Legend:
# CXCL10 = CXCL10 levels in retina tissue of STZ diabetic rats, topical eye drops; type: in vivo; conditions: eye drops 1-5%, 20 μL three times per day, 30 days, retina homogenate ELISA, vs control eye
# Description: CXCL10 expression is associated with age related and diabetes induced retinopathy. A hallmark of these retinopathies is retinal vascular leakage (i.e. increased retinal vascular permeability) thought to induced by CXCL10. To test the in vivo effect of the compounds on treatment of retinopathies associated with increased CXCL10 levels, diabetes was induced in rats by treatment with Streptozotocin (STZ) according established methods (Akbarzadeh et al, J Clin Biochem. 2007 September; 22(2): 60-64) Testing began once the diabetes had been established in the animals. Compounds were formulated into a topically applied eye drop solution containing 1-5% of compounds 91 and 108 along with ethylene glycol, sodium lauryl sulfate, hyaluronic acid, and sterile water at pH 7.0. […] CXCL10 expression was measured in retina tissue homogenate and retinal vascular permeability was assayed using the measurement of leakage of Evans Blue dye from retinal vessels, a well-established method (Invest Ophthalmol Vis Sci 2001 March; 42: 789-794).
# [1] = system: human subjects suffering from dermatitis; assay: Clinical treatment of dermatitis/eczema with topical cream, Investigator's Global Assessment (IGA); type: in vivo; conditions: 7% topical cream twice per day, 3-4 weeks, vs area treated with cream base alone
# Description: To test the effect of the compounds on treatment of human dermatologic disorders associated with increased CXCL10 production by keratinocytes, Compound 97 and Compound 98 were formulated with stearic acid, lanolin (anhydrous), mineral oil and triethanolamine into a topically applied cream at a concentration of 7%. The compounds in the cream base were applied topically twice per day to human subjects suffering from dermatitis in an area of the skin with active skin lesions for 3-4 weeks. The control was the topical cream base composition without the active compounds. Outcome was measured by an experienced clinical observer as assessed by visible reduction or disappearance of the lesions as assessed in the treated area vs the control area treated only with the cream base alone using Investigator's Global Assessment (IGA) scale.
SMILES,amount of CXCL10 produced by the retina (CXCL10),"dermatitis/eczema lesions, Investigator's Global Assessment (IGA) [1]"
COc1ccc2[nH]c([S+]([O-])Cc3ncc(C)c(OC)c3C)nc2c1 (stereo not shown) [Compound 91],significant reduction,–
Cc1c(OCC(F)(F)F)ccnc1C[S+]([O-])c1nc2ccccc2[nH]1 (stereo not shown) [Compound 97],–,pronounced effect on reducing the dermatitis/eczema
COCCCOc1ccnc(C[S+]([O-])c2nc3ccccc3[nH]2)c1C (stereo not shown) [Compound 98],–,pronounced effect on reducing the dermatitis/eczema
COc1ccnc(C[S+]([O-])c2nc3cc(OC(F)F)ccc3[nH]2)c1OC (stereo not shown) [Compound 108],significant reduction,–
